Source: US20140113931A1, “SUBSTITUTED PICOLINAMIDE KINASE INHIBITORS” (Portola Pharmaceuticals, Inc., priority 2012, published 2014)

target: T1, full length active recombinant SYK enzyme (Homo sapiens, UniProt P43405); experiment: Inhibition of Syk tyrosine phosphorylation activity (LANCE TR-FRET kinase assay); format: biochemical; conditions: 1 nM active SYK enzyme, 550 nM SYK-substrate, 100 μM ATP, 1 hour at room temperature
T1 construct: full length active recombinant SYK enzyme (Millipore, CA); purchased Millipore, CA
Method: The in vitro and in vivo human Syk activities of the inventive compounds can be determined by various procedures known in the art, such as a test for their ability to inhibit the activity of human plasma Syk. […] The IC50 value is the concentration (in nM) of the compound required to provide 50% inhibition of human Syk proteolytic activity.
An in vitro assay for detecting and measuring inhibition activity against Syk is as follows:
SYK tyrosine phosphorylation activity is measured using the LANCE™ Technology developed by Perkin Elmer Life and Analytical Sciences (Boston, Mass.). LANCE™ refers to homogeneous time resolved fluorometry applications using techniques such as time-resolved fluorescence resonance energy transfer assay (TR-FRET) (see generally for procedures in Perkin Elmer Application Note—How to Optimize a Tyrosine Kinase Assay Using Time Resolved Fluorescence-Based LANCE Detection, wwww.perkinelmer.com/lifesciences). The assay principle involves detection of a phosphorylated substrate using energy transfer from a phosphospecific europium-labeled antibody to streptavidin-allophycocyanin as an acceptor.
Molecules are reconstituted in 30% DMSO and serially diluted 1:3 with the final dilution containing DMSO in the absence of the candidate molecule. The final DMSO concentration in the assay is 3%. Kinase assays are performed as a two part reaction. The first reaction is a kinase reaction and which comprises of a candidate molecule, full length active recombinant SYK enzyme (Millipore, CA) and biotin-labeled SYK-specific substrate biotin-DEEDYESP-OH. The second reaction involves termination of the kinase reaction and the simultaneous addition of the detection reagents-europium-labeled anti-phosphotyrosine reagent (Eu-W1024-PY100, Perkin Elmer, Boston, Mass.) and Streptavidin-Allophycocyanin detection reagent (SA-APC, Prozyme, CA). The kinase reaction is performed in a black U-bottom 96-well microtitre plate. The final reaction volume is 50 μL and contains a final concentration of 1 nM active SYK enzyme, 550 nM SYK-substrate, and 100 μM ATP diluted in a buffer containing 50 mM Tris pH 7.5, 5 mM MgCl2, and 1 mM DTT. The reaction is allowed to proceed for 1 hour at room temperature. The quench buffer contains 100 mM Tris pH 7.5, 300 mM NaCl2, 20 mM EDTA, 0.02% Brij35, and 0.5% BSA. The detection reagents are added to the reaction mixture at the following dilutions-1:500 for Eu-W1024-PY100 and 1:250 for SA-APC. The kinase reaction is terminated by the addition of 50 μL quench buffer containing the detection reagents. The detection is allowed to proceed for 1 hr at room temperature. Detection of the phosphorlated substrate in the absence and presence of inhibitors is measured in the TR-FRET instrument, Analyst HT (Molecular Probes, Sunnyvale, Calif.) and the condition for measurements are set up using CriterionHost Release 2.0 (Molecular Probes, Sunnyvale, Calif.). The settings used are a follows: excitation 360 nm, emission 665-7.5 nm, beam splitter 350 nm 50/50, flash 100 pulses, delay 60 us, integration 400 us, z-height 2 mm. Inhibition of SYK-tyrosine kinase activity is calculated as the maximum response observed in the presence of inhibitor, compared to that in the absence of inhibitor. IC50s were derived by non-linear regression analysis.

SMILES	IC50 [nM]
CC(C)C[C@@H](Nc1cnc(C(N)=O)c(Nc2ccc3ncccc3c2)c1)C(N)=O [Example 16, (R)-5-(1-amino-4-methyl-1-oxopentan-2-ylamino)-3-(quinolin-6-ylamino)picolinamide]	10 to 100
NC(=O)c1ncc(N[C@@H]2CCCC[C@@H]2N)cc1Nc1ccc2ccncc2c1 [Example 14, 5-((1R,2S)-2-aminocyclohexylamino)-3-(isoquinolin-7-ylamino)picolinamide]	10 to 100
NC(=O)c1ncc(N[C@@H]2CCCC[C@@H]2N)cc1Nc1cnc2ccccc2c1 [Example 13, 5-((1R,2S)-2-aminocyclohexylamino)-3-(quinolin-3-ylamino)picolinamide]	100 to 1000
NC(=O)c1ncc(N[C@@H]2CCCC[C@@H]2N)cc1Nc1cccc(-n2nccn2)c1 [Example 6, 3-(3-(2H-1,2,3-triazol-2-yl)phenylamino)-5-((1R,2S)-2-aminocyclohexylamino)picolinamide]	10 to 100
CC(C)C[C@@H](Nc1cnc(C(N)=O)c(Nc2cc(-c3ccccc3)no2)c1)C(N)=O [Example 11, (R)-5-(1-amino-4-methyl-1-oxopentan-2-ylamino)-3-(3-phenylisoxazol-5-ylamino)picolinamide]	1 to 10
Cc1cc(Nc2cc(N[C@H]3CC[C@@H](N)CC3)cnc2C(N)=O)sn1 [Example 26, 5-((1S,4S)-4-aminocyclohexylamino)-3-(3-methylisothiazol-5-ylamino)picolinamide]	10 to 100
Cc1cc(Nc2cc(N[C@@H](C(N)=O)C(C)C)cnc2C(N)=O)sn1 [Example 7, (R)-5-(1-amino-3-methyl-1-oxobutan-2-ylamino)-3-(3-methylisothiazol-5-ylamino)picolinamide]	10 to 100
Cn1cc(Nc2cc(N[C@@H]3CCCC[C@@H]3N)cnc2C(N)=O)cn1 [Example 24, 5-((1R,2S)-2-aminocyclohexylamino)-3-(1-methyl-1H-pyrazol-4-ylamino)picolinamide]	100 to 1000
Cc1cc(Nc2cc(N[C@@H]3CCCC[C@@H]3N)cnc2C(N)=O)on1 [Example 10, 5-((1R,2S)-2-aminocyclohexylamino)-3-(3-methylisoxazol-5-ylamino)picolinamide]	10 to 100
NC(=O)c1ncc(N[C@@H]2CCCC[C@@H]2N)cc1Nc1cnn2ccccc12 [Example 25, 5-((1R,2S)-2-aminocyclohexylamino)-3-(pyrazolo[1,5-a]pyridin-3-ylamino)picolinamide]	100 to 1000
Cc1cc(Nc2cc(N[C@H](CC3CC3)C(N)=O)cnc2C(N)=O)sn1 [Example 3, (R)-5-(1-amino-3-cyclopropyl-1-oxopropan-2-ylamino)-3-(3-methylisothiazol-5-ylamino)picolinamide]	1 to 10
Cc1nsc(Nc2cc(N[C@H](CC3CC3)C(N)=O)cnc2C(N)=O)c1I [Example 31, (R)-5-((1-amino-3-cyclopropyl-1-oxopropan-2-yl)amino)-3-((4-iodo-3-methylisothiazol-5-yl)amino)picolinamide]	100 to 1000
CC[C@@H](Nc1cnc(C(N)=O)c(Nc2cc(C)ns2)c1)C(N)=O [Example 5, (R)-5-(1-amino-1-oxobutan-2-ylamino)-3-(3-methylisothiazol-5-ylamino)picolinamide]	10 to 100
NC(=O)c1ncc(N[C@@H]2CCCC[C@@H]2N)cc1Nc1ccc2cnccc2c1 [Example 12, 5-((1R,2S)-2-aminocyclohexylamino)-3-(isoquinolin-6-ylamino)picolinamide]	10 to 100
NC(=O)c1ncc(N[C@@H]2CCCC[C@@H]2N)cc1Nc1nc(-c2ccccc2)no1 [Example 29, 5-(((1R,2S)-2-aminocyclohexyl)amino)-3-((3-phenyl-1,2,4-oxadiazol-5-yl)amino)picolinamide]	10 to 100
CC(C)C[C@@H](Nc1cnc(C(N)=O)c(Nc2nc(-c3ccccc3)no2)c1)C(N)=O [Example 30, (R)-5-((1-amino-4-methyl-1-oxopentan-2-yl)amino)-3-((3-phenyl-1,2,4-oxadiazol-5-yl)amino)picolinamide]	10 to 100
NC(=O)c1ncc(N[C@@H]2CCCC[C@@H]2N)cc1Nc1ccc2ncccc2c1 [Example 27, 5-((1R,2S)-2-aminocyclohexylamino)-3-(quinolin-6-ylamino)picolinamide]	10 to 100
CC(C)C[C@@H](Nc1cnc(C(N)=O)c(Nc2ccc3cnccc3c2)c1)C(N)=O [Example 17, (R)-5-(1-amino-4-methyl-1-oxopentan-2-ylamino)-3-(isoquinolin-6-ylamino)picolinamide]	10 to 100
NC(=O)c1ncc(N[C@@H]2CCCC[C@@H]2N)cc1Nc1ccc2cccnc2c1 [Example 15, 5-((1R,2S)-2-aminocyclohexylamino)-3-(quinolin-7-ylamino)picolinamide]	10 to 100

Now from value to compound:

IC50 [nM]	SMILES
1 to 10	NC(=O)c1ncc(N[C@@H]2CCCC[C@@H]2N)cc1Nc1cc(C2CC2)no1 [Example 34, 5-((1R,2S)-2-aminocyclohexylamino)-3-(3-cyclopropylisoxazol-5-ylamino)picolinamide]
1 to 10	NC(=O)c1ncc(N[C@H](CC(F)(F)F)C(N)=O)cc1Nc1ccc2cccnc2c1 [Example 51, (R)-5-(1-amino-4,4,4-trifluoro-1-oxobutan-2-ylamino)-3-(quinolin-7-ylamino)picolinamide]
< 1	Cc1cc(Nc2cc(N[C@H](CC(F)(F)F)C(N)=O)cnc2C(N)=O)sn1 [Example 44, (R)-5-(1-amino-4,4,4-trifluoro-1-oxobutan-2-ylamino)-3-(3-methylisothiazol-5-ylamino)picolinamide]
1 to 10	CC[C@@H](Nc1cnc(C(N)=O)c(Nc2cc(C3CC3)ns2)c1)C(N)=O [Example 38, (R)-5-(1-amino-1-oxobutan-2-ylamino)-3-(3-cyclopropylisothiazol-5-ylamino)picolinamide]
10 to 100	CC(C)(C)C[C@@H](Nc1cnc(C(N)=O)c(Nc2cc(F)c3ncccc3c2)c1)C(N)=O [Example 40, (R)-5-(1-amino-4,4-dimethyl-1-oxopentan-2-ylamino)-3-(8-fluoroquinolin-6-ylamino)picolinamide]
10 to 100	NC(=O)c1ncc(N[C@@H]2CCOC[C@@H]2N)cc1Nc1cc(-c2ccncc2)no1 [Example 52, 5-((3R,4R)-3-aminotetrahydro-2H-pyran-4-ylamino)-3-(3-(pyridin-4-yl)isoxazol-5-ylamino)picolinamide]
10 to 100	Cc1cc(Nc2cc(N[C@H](CCS(C)(=O)=O)C(N)=O)cnc2C(N)=O)sn1 [Example 45, (R)-5-(1-amino-4-(methylsulfonyl)-1-oxobutan-2-ylamino)-3-(3-methylisothiazol-5-ylamino)picolinamide]
1 to 10	CC(C)(C)C[C@@H](Nc1cnc(C(N)=O)c(Nc2ccc3cccnc3c2)c1)C(N)=O [Example 41, (R)-5-(1-amino-4,4-dimethyl-1-oxopentan-2-ylamino)-3-(quinolin-7-ylamino)picolinamide]
10 to 100	Cc1cc(Nc2cc(N[C@@H](C(N)=O)c3ccccc3)cnc2C(N)=O)sn1 [Example 42, (R)-5-(2-amino-2-oxo-1-phenylethylamino)-3-(3-methylisothiazol-5-ylamino)picolinamide]
10 to 100	NC(=O)c1ncc(N[C@@H]2CCOC[C@@H]2N)cc1Nc1cc(-c2cccnc2)no1 [Example 53, 5-((3R,4R)-3-aminotetrahydro-2H-pyran-4-ylamino)-3-(3-(pyridin-3-yl)isoxazol-5-ylamino)picolinamide]
1 to 10	CC(C)C[C@@H](Nc1cnc(C(N)=O)c(Nc2cc(-c3ccncc3)no2)c1)C(N)=O [Example 47, (R)-5-(1-amino-4-methyl-1-oxopentan-2-ylamino)-3-(3-(pyridin-4-yl)isoxazol-5-ylamino)picolinamide]
10 to 100	NC(=O)c1ncc(N[C@@H]2CCCC[C@@H]2N)cc1Nc1cc(-c2cccnc2)no1 [Example 50, 5-((1R,2S)-2-aminocyclohexylamino)-3-(3-(pyridin-3-yl)isoxazol-5-ylamino)picolinamide]
